The test system of the data set is CCRIS mutagenicity, Ames/micronucleus/aberration tests. The data set is described as follows: CCRIS mutagenicity studies.
Where [1] appears, read: Test System: AMES SALMONELLA TYPHIMURIUM, Strain/Indicator: TA100, Metabolic Activation: NONE, Method: STANDARD PLATE.

The source made the active and inactive calls. The rule behind the calls is not given here.

With `C[n+]1c2ccccc2cc2ccc(N)cc21`, the mutagenic call is “inactive; negative” (Test System: AMES SALMONELLA TYPHIMURIUM, Strain/Indicator: TA1535, Metabolic Activation: NONE, Method: PREINCUBATION); “inactive; negative” (Test System: AMES SALMONELLA TYPHIMURIUM, Strain/Indicator: TA1535, Metabolic Activation: RAT, LIVER, S-9, TETRACHLOROBIPHENYL, Method: PREINCUBATION); “active; positive” (Test System: AMES SALMONELLA TYPHIMURIUM, Strain/Indicator: TA1537, Metabolic Activation: NONE, Method: PREINCUBATION); “active; positive” (Test System: AMES SALMONELLA TYPHIMURIUM, Strain/Indicator: TA1537, Metabolic Activation: RAT, LIVER, S-9, TETRACHLOROBIPHENYL, Method: PREINCUBATION); “inactive; negative” (Test System: AMES SALMONELLA TYPHIMURIUM, Strain/Indicator: TA1538, Metabolic Activation: NONE, Method: PREINCUBATION); “active; positive” (Test System: AMES SALMONELLA TYPHIMURIUM, Strain/Indicator: TA1538, Metabolic Activation: RAT, LIVER, S-9, TETRACHLOROBIPHENYL, Method: PREINCUBATION). The mutagenic call was “active; positive” (Test System: AMES SALMONELLA TYPHIMURIUM, Strain/Indicator: TA1977, Metabolic Activation: NONE, Method: PREINCUBATION); “active; positive” (Test System: AMES SALMONELLA TYPHIMURIUM, Strain/Indicator: TA1977, Metabolic Activation: RAT, LIVER, S-9, TETRACHLOROBIPHENYL, Method: PREINCUBATION); “inactive; negative” (Test System: AMES SALMONELLA TYPHIMURIUM, Strain/Indicator: TA1978, Metabolic Activation: RAT, LIVER, S-9, TETRACHLOROBIPHENYL, Method: PREINCUBATION).
In the case of `COc1ccc2cc([C@H](C)C(=O)O)ccc2c1`, the mutagenic call is, setting by setting: (Test System: AMES SALMONELLA TYPHIMURIUM, Strain/Indicator: TA97A, Metabolic Activation: NONE, Method: STANDARD PLATE) “inactive; negative”; (Test System: AMES SALMONELLA TYPHIMURIUM, Strain/Indicator: TA97A, Metabolic Activation: RAT, LIVER, S-9, PHENOBARBITAL, Method: STANDARD PLATE) “inactive; negative”; (Test System: AMES SALMONELLA TYPHIMURIUM, Strain/Indicator: TA98, Metabolic Activation: GUINEA PIG, LIVER, S-9, PCB, Method: PREINCUBATION) “inactive; negative”; (Test System: AMES SALMONELLA TYPHIMURIUM, Strain/Indicator: TA98, Metabolic Activation: HAMSTER, LIVER, S-9, PCB, Method: PREINCUBATION) “inactive; negative”; (Test System: AMES SALMONELLA TYPHIMURIUM, Strain/Indicator: TA98, Metabolic Activation: MOUSE, LIVER, S-9, PCB, Method: PREINCUBATION) “inactive; negative”; (Test System: AMES SALMONELLA TYPHIMURIUM, Strain/Indicator: TA98, Metabolic Activation: NONE, Method: PREINCUBATION) “inactive; negative”. For the same compound, the mutagenic call was “inactive; negative” (Test System: AMES SALMONELLA TYPHIMURIUM, Strain/Indicator: TA98, Metabolic Activation: RAT, LIVER, S-9, PCB, Method: PREINCUBATION); “inactive; negative” (Test System: AMES SALMONELLA TYPHIMURIUM, Strain/Indicator: TA98, Metabolic Activation: RAT, LIVER, S-9, PCB, Method: STANDARD PLATE); “inactive; negative” (Test System: AMES SALMONELLA TYPHIMURIUM, Strain/Indicator: TA100, Metabolic Activation: GUINEA PIG, LIVER, S-9, PCB, Method: PREINCUBATION); “inactive; negative” (Test System: AMES SALMONELLA TYPHIMURIUM, Strain/Indicator: TA100, Metabolic Activation: HAMSTER, LIVER, S-9, PCB, Method: PREINCUBATION); “inactive; negative” (Test System: AMES SALMONELLA TYPHIMURIUM, Strain/Indicator: TA100, Metabolic Activation: MOUSE, LIVER, S-9, PCB, Method: PREINCUBATION); “inactive; negative” (Test System: AMES SALMONELLA TYPHIMURIUM, Strain/Indicator: TA100, Metabolic Activation: NONE, Method: PREINCUBATION). For the same compound, the mutagenic call was “inactive; negative” under setting [1]; “inactive; negative” (Test System: AMES SALMONELLA TYPHIMURIUM, Strain/Indicator: TA100, Metabolic Activation: RAT, LIVER, S-9, PCB, Method: PREINCUBATION); “inactive; negative” (Test System: AMES SALMONELLA TYPHIMURIUM, Strain/Indicator: TA100, Metabolic Activation: RAT, LIVER, S-9, PCB, Method: STANDARD PLATE); “inactive; negative” (Test System: AMES SALMONELLA TYPHIMURIUM, Strain/Indicator: TA100, Metabolic Activation: RAT, LIVER, S-9, PHENOBARBITAL, Method: STANDARD PLATE); “inactive; negative” (Test System: AMES SALMONELLA TYPHIMURIUM, Strain/Indicator: TA102, Metabolic Activation: NONE, Method: STANDARD PLATE); “inactive; negative” (Test System: AMES SALMONELLA TYPHIMURIUM, Strain/Indicator: TA102, Metabolic Activation: RAT, LIVER, S-9, PHENOBARBITAL, Method: STANDARD PLATE). The mutagenic call is, setting by setting: (Test System: AMES SALMONELLA TYPHIMURIUM, Strain/Indicator: TA1537, Metabolic Activation: RAT, LIVER, S-9, PCB, Method: STANDARD PLATE) “inactive; negative”; (Test System: AMES SALMONELLA TYPHIMURIUM, Strain/Indicator: TA1538, Metabolic Activation: RAT, LIVER, S-9, PCB, Method: STANDARD PLATE) “inactive; negative”; (Test System: E. COLI, Strain/Indicator: WP2 UVRA, Metabolic Activation: RAT, LIVER, S-9, PCB, Method: STANDARD PLATE) “inactive; negative”.
Regarding `CC(=O)N(CC(O)CN(C(C)=O)c1c(I)c(C(=O)NCC(O)CO)c(I)c(C(=O)NCC(O)CO)c1I)c1c(I)c(C(=O)NCC(O)CO)c(I)c(C(=O)NCC(O)CO)c1I` (centres undefined), the mutagenic call was “inactive; negative” (Test System: AMES SALMONELLA TYPHIMURIUM, Strain/Indicator: TA98, Metabolic Activation: NONE, Method: STANDARD PLATE); “inactive; negative” (Test System: AMES SALMONELLA TYPHIMURIUM, Strain/Indicator: TA98, Metabolic Activation: RAT, LIVER, S-9, AROCLOR 1254, Method: STANDARD PLATE); “inactive; negative” under setting [1]; “inactive; negative” (Test System: AMES SALMONELLA TYPHIMURIUM, Strain/Indicator: TA100, Metabolic Activation: RAT, LIVER, S-9, AROCLOR 1254, Method: STANDARD PLATE); “inactive; negative” (Test System: AMES SALMONELLA TYPHIMURIUM, Strain/Indicator: TA1535, Metabolic Activation: NONE, Method: STANDARD PLATE); “inactive; negative” (Test System: AMES SALMONELLA TYPHIMURIUM, Strain/Indicator: TA1535, Metabolic Activation: RAT, LIVER, S-9, AROCLOR 1254, Method: STANDARD PLATE). Further, the mutagenic call reads like this: (Test System: AMES SALMONELLA TYPHIMURIUM, Strain/Indicator: TA1537, Metabolic Activation: NONE, Method: STANDARD PLATE) “inactive; negative”; (Test System: AMES SALMONELLA TYPHIMURIUM, Strain/Indicator: TA1537, Metabolic Activation: RAT, LIVER, S-9, AROCLOR 1254, Method: STANDARD PLATE) “inactive; negative”; (Test System: AMES SALMONELLA TYPHIMURIUM, Strain/Indicator: TA1538, Metabolic Activation: NONE, Method: STANDARD PLATE) “inactive; negative”; (Test System: AMES SALMONELLA TYPHIMURIUM, Strain/Indicator: TA1538, Metabolic Activation: RAT, LIVER, S-9, AROCLOR 1254, Method: STANDARD PLATE) “inactive; negative”; (Test System: E. COLI, Strain/Indicator: WP2 UVRA, Metabolic Activation: NONE, Method: STANDARD PLATE) “inactive; negative”; (Test System: E. COLI, Strain/Indicator: WP2 UVRA, Metabolic Activation: RAT, LIVER, S-9, AROCLOR 1254, Method: STANDARD PLATE) “inactive; negative”.
As for `O=C(Cl)CCl`, the mutagenic call is, setting by setting: (End Point: IN VITRO CHROMOSOMAL ABERRATIONS, Test System: CHINESE HAMSTER LUNG (CHL), Metabolic Activation: NONE) “inactive; negative”; (End Point: IN VITRO CHROMOSOMAL ABERRATIONS, Test System: CHINESE HAMSTER LUNG (CHL), Metabolic Activation: RAT, LIVER, S-9, KC-400) “inactive; negative”.

Values taken from PubChem BioAssay AID1259407 (Chemical Carcinogenesis Research Information System (CCRIS), 2018).
